Drawing on patent US6855710B2, “Substituted indolines with an inhibitory effect on various kinases and complexes of CDKs” (Boehringer Ingelheim Pharma KG, priority 1998, dated 2005), this text covers melting point for 24 molecules.

SMILES strings stand for the structures.

The molecule `CN(CC(=O)N(C)c1ccc(N/C(=C2\C(=O)Nc3ccccc32)c2ccccc2)cc1)Cc1ccccc1` [Example 370, (Z)-3-{1-[4-(N—(N-benzyl-N-methyl-aminomethylcarbonyl)-N-methyl-amino)-phenylamino]-1-phenyl-methylidene}-2-indolinone] returned a melting point of 195 to 197 °C. With `O=C1Nc2ccc([N+](=O)[O-])cc2/C1=C(/Nc1ccccc1)c1ccc(CN2C(=O)c3ccccc3C2=O)cc1` [Example 153, (Z)-3-[1-phenylamino-1-(4-phthalimidomethyl-phenyl)-methylidene]-5-nitro-2-indolinone], the melting point is 334 to 336 °C (dec.). Consider `CC(=O)N(CCN(C)C)c1ccc(N/C(=C2\C(=O)Nc3ccccc32)c2ccccc2)cc1` [Example 340, (Z)-3-{1-[4-(N-(2-dimethylaminoethyl)-N-acetyl-amino)-phenylamino]-1-phenyl-methylidene}-2-indolinone], for which the melting point was 197 to 199 °C. As for `CNc1cccc(N/C(=C2\C(=O)Nc3ccccc32)c2ccccc2)c1` [Example 37, (Z)-3-[1-(3-methylamino-phenylamino)-1-phenyl-methylidene]-2-indolinone], the melting point fell in the range of 247 to 248 °C.

Turning to `CC(C)S(=O)(=O)N(CC(=O)N(C)C)c1ccc(N/C(=C2\C(=O)Nc3ccccc32)c2ccccc2)cc1` [Example 304, (Z)-3-{1-[4-(N-(dimethylaminocarbonylmethyl)-N-isopropylsulphonyl-amino)-phenylamino]-1-phenyl-methylidene}-2-indolinone], the melting point fell in the range of 146 to 148 °C. For `CNC(=O)c1cccc(N/C(=C2\C(=O)Nc3ccccc32)c2ccccc2)c1` [Example 21, (Z)-3-[1-(3-methylaminocarbonyl-phenylamino)-1-phenyl-methylidene]-2-indolinone], the melting point was in the range of 250 to 252 °C.

The molecule `CN(C)Cc1ccc(N/C(=C2\C(=O)Nc3ccccc32)c2cccc(Cl)c2)cc1` [Example 223, (Z)-3-[1-(4-dimethylaminomethyl-phenylamino)-1-(3-chlorophenyl)-methylidene]-2-indolinone] showed a melting point of 197 to 198 °C.

With `CCC1CCN(Cc2ccc(N/C(=C3\C(=O)Nc4ccc([N+](=O)[O-])cc43)c3ccccc3)cc2)CC1` [Example 175, (Z)-3-{1-[4-(4-ethylpiperidinomethyl)-phenylamino]-1-phenyl-methylidene}-5-nitro-2-indolinone], the melting point fell in the range of 225 to 227 °C. In turn, `CN(C(=O)CN1CCNCC1)c1ccc(N/C(=C2\C(=O)Nc3ccc([N+](=O)[O-])cc32)c2ccccc2)cc1.Cl.Cl` returned a melting point of 246 to 248 °C. With `CCNC(=O)Nc1ccc(N/C(=C2\C(=O)Nc3ccccc32)c2ccccc2)cc1` [Example 45, (Z)-3-[1-(4-ethylaminocarbonylamino-phenylamino)-1-phenyl-methylidene]-2-indolinone] the figure was 264 to 265 °C; with `O=C1Nc2ccc([N+](=O)[O-])cc2/C1=C(/Nc1ccc(NCCN2CCOCC2)cc1)c1ccccc1` [Example 332, (Z)-3-{1-[4-(2-morpholinoethylamino)-phenylamino]-1-phenyl-methylidene}-5-nitro-2-indolinone], 253 °C. `O=C1Nc2ccc([N+](=O)[O-])cc2/C1=C(/Nc1ccc(CN2CC=CCC2)cc1)c1ccccc1` [Example 270, (Z)-3-{1-[4-(3,6-Dihydro-2H-pyridin-1-ylmethyl)-phenylamino]-1-phenyl-methylidene}-5-nitro-2-indolinone] showed a melting point of 222 to 225 °C. In turn, `COc1cccc(/C(Nc2ccc(CN(C)C)cc2)=C2/C(=O)Nc3ccccc32)c1` [Example 217, (Z)-3-[1-(4-dimethylaminomethyl-phenylamino)-1-(3-methoxyphenyl)-methylidene]-2-indolinone] registered a melting point of 193 to 194 °C.

`CN(C)CCN(C)CC(=O)N(C)c1ccc(N/C(=C2\C(=O)Nc3ccccc32)c2ccccc2)cc1` [Example 375, (Z)-3-{1-[4-(N—(N-(2-dimethylaminoethyl)-N-methyl-aminomethylcarbonyl)-N-methylamino)-phenylamino]-1-phenyl-methylidene}-2-indolinone] registered a melting point of 167 to 169 °C. With `O=C1Nc2ccc([N+](=O)[O-])cc2/C1=C(/Nc1ccc(CNC2CCCCC2)cc1)c1ccccc1` [Example 278, (Z)-3-{1-[4-(cyclohexylaminomethyl)-phenylamino]-1-phenyl-methylidene}-5-nitro-2-indolinone] the figure was 245 °C; with `CN(C)CCOc1ccc(N/C(=C2\C(=O)Nc3ccccc32)c2ccccc2)cc1` [Example 284, (Z)-3-{1-[4-(2-dimethylaminoethyloxy)-phenylamino]-1-phenyl-methylidene}-2-indolinone], 258 to 260 °C; with `COC(=O)c1ccc(/C(Nc2ccc(CN3CCCCC3)cc2)=C2/C(=O)Nc3ccc([N+](=O)[O-])cc32)cc1` [Example 444, (Z)-3-[1-(4-piperidinomethyl-phenylamino)-1-(4-methoxycarbonyl-phenyl)-methylidene]-5-nitro-2-indolinone], 178 to 183 °C.

As to `CN(C)CCNS(=O)(=O)c1ccc(N/C(=C2\C(=O)Nc3ccc([N+](=O)[O-])cc32)c2ccccc2)cc1` [Example 401, (Z)-3-{1-[4-(2-dimethylamino-ethylaminosulphonyl)-phenylamino]-1-phenyl-methylidene}-5-nitro-2-indolinone], the melting point fell in the range of 260 to 261 °C. `CCOC(=O)Cc1cccc(N/C(=C2\C(=O)Nc3ccccc32)c2ccccc2)c1` [Example 11, (Z)-3-[1-(3-ethoxycarbonylmethyl-phenylamino)-1-phenyl-methylidene]-2-indolinone]: the melting point lay within 178 to 181 °C. As for `COC(=O)/C=C/c1ccc(/C(Nc2ccc(OC)cc2)=C2/C(=O)Nc3ccc([N+](=O)[O-])cc32)cc1` [Example 435, (Z)-3-{1-(4-methoxyphenylamino)-1-[(E)-4-(2-methoxycarbonylethenyl)-phenyl]-methylidene}-5-nitro-2-indolinone], the melting point lay within 266 to 270 °C.

For `CCN(CC)S(=O)(=O)c1ccc(N/C(=C2\C(=O)Nc3ccccc32)c2ccccc2)cc1` [Example 398, (Z)-3-{1-[4-(diethylaminosulphonyl)-phenylamino]-1-phenyl-methylidene}-2-indolinone], the melting point was 252 to 254 °C. `CN(C)C(=O)CN(c1cccc(N/C(=C2\C(=O)Nc3ccccc32)c2ccc(CN)cc2)c1)S(C)(=O)=O` [Example 420, (Z)-3-{1-[3-(N-dimethylaminocarbonylmethyl-N-methylsulphonyl-amino)-phenylamino]-1-(4-aminomethyl-phenyl)-methylidene}-2-indolinone]: the melting point stood at 220 °C.

In turn, `CN(CC(=O)O)S(=O)(=O)c1ccc(N/C(=C2\C(=O)Nc3ccc([N+](=O)[O-])cc32)c2ccccc2)cc1` [Example 414, (Z)-3-{1-[4-(N-carboxymethyl-N-methyl-aminosulphonyl)-phenylamino]-1-phenyl-methylidene}-5-nitro-2-indolinone] came in with a melting point of 259 to 260 °C.

The molecule `O=C1Nc2ccc(Br)cc2/C1=C(/Nc1ccc(CN2CCCCC2)cc1)c1ccccc1` [Example 450, (Z)-3-[1-(4-piperidinomethyl-phenylamino)-1-phenyl-methylidene]-5-bromo-2-indolinone] registered a melting point of 170 °C.
